Data on two molecules can be found in patent US20230105108A1, “COMPOUNDS FOR THE TREATMENT OF BACTERIAL INFECTIONS AND POTENTIATION OF ANTIBIOTICS” (GEORGIA STATE UNIVERSITY RESEARCH FOUNDATION, INC., priority 2019, published 2023).

Each structure is given as a SMILES string. “Also recorded” adds a separate entry of the source. Structures can show the parent of a compound that is named as a salt. Where two headings read alike, the source gives them in different places. Marks after values point to notes of the source that are not given here.

A short description of series [1]: Cytotoxicity in H9c2 cells (CCK-8). It counts as cell-based. The conditions noted are these: rat, H9c2 cells; H9c2 cell line. An outline of the steps:
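H9c2 cells were grown in DMEM with 10% FBS, seeded the day before, and exposed to a range of di-amidine concentrations for 24 h at 37 °C, 5% CO2. Viability was read by CCK-8 after 3 h at 37 °C as absorbance at 450 nm.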

The test system of a further series is E. coli (ATCC 25922). Nature of the series: MIC determination, sensitization fold and FIC index on E. coli. It counts as cell-based. Particulars: for MIC: Escherichia coli. An outline of the steps: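 E. coli in cation-adjusted Mueller Hinton II, 5×10^5 CFU/ml, 24 h at 37 °C shaking; rifampicin two-fold serial dilutions with or without fixed sensitizer (10 μM).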

The next series deals with B. subtilis. The series is described as follows: MIC determination and sensitization fold on B. subtilis. It counts as cell-based. The conditions noted are these: for Sensitization fold: erythromycin; for MIC: Bacillus subtilis.
Another series deals with MRSA (ATCC 33592). Nature of the series: MIC determination and sensitization fold on MRSA. It counts as cell-based, methicillin-resistant Staphylococcus aureus. The conditions noted are these: MRSA; for Sensitization fold: rifampicin.
The next series has as its system HEK293 cells. Nature of the series: Cytotoxicity on mammalian cells (CCK-8), HEK293. It counts as cell-based. The conditions noted are these: for CC50: HEK293 cell line, 24 h; for IC50: Homo sapiens. An outline of the steps:
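Cells seeded a day ahead to ~80% confluency, exposed to varied compound concentrations for 24 h at 37° C, 5% CO2. CCK-8 added for a further 2 h and OD 450 nm read; viability expressed as percent of untreated control.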

The test system of the next series is E. coli strain NR698. Nature of the series: Sensitization of outer membrane leaky E. coli strain NR698. It counts as cell-based. Here is the method:
Ery is short for erythromycin. […] E. coli NR698 was cultured with the antibiotic at various concentrations in the presence or absence of bacterial sensitizer for 24 h at 37° C. Then bacterial growth density was determined by measuring OD600. […] Then the growth density/% was calculated based on OD600.
Bacteria culture and MICs determination: Gram-negative bacteria were cultured in Mueller Hinton II cation-adjusted broth. Gram-positive bacteria were cultured in LB broth. Mycobacterium smegmatis was cultured in Middlebrook 7H9 Broth. MICs of antibiotics itself were determined by performing two-fold serial dilutions of antibiotics. MICs of antibiotics in the presence of bacterial sensitizers were determined by performing two-fold serial dilutions of antibiotics with or without a constant concentration of bacterial sensitizers. The MICs tests were performed on 96-well plates with a final volume of 200 μl Mueller Hinton II cation-adjusted broth in each well. Each well was inoculated with 5×10^5 CFU/ml bacteria and was incubated for 24 h at 37° C. with continuous shaking of 200 rpm. The bacterial density was then determined by OD600. Bacterial growth %=OD600 of antibiotic treatment group/OD600 of antibiotic non-treatment group. MICs was determined as the concentrations that inhibit more than 90% of bacteria growth.

The subject of a further series is K. pneumoniae (43816). Nature of the series: MIC, sensitization fold and FIC index on K. pneumoniae. It counts as cell-based. The conditions noted are these: Klebsiella pneumoniae; K. pneumoniae; read-out: MIC of MD-124.
For series [2], the system named is mcr-1 over-expressing E. coli strains. The series is described as follows: microbe, parasite or virus in culture. It counts as cell-based.
In series [3] the test system is E. coli. The series is described as follows: Bacterial resistance frequency study. It counts as cell-based. As to the method:
Bacterial resistance frequency study: E. coli was grown overnight in Mueller Hinton II cation-adjusted broth medium and concentrated to ˜5×10^9 CFUs/ml in Mueller Hinton II cation-adjusted broth. […] Then the plates were incubated at 37° C. for 48 h. Then the colonies formed on the plate were recorded and resistant frequency was calculated.

In series [4] the test system is E. coli. Nature of the series: Ex vivo skin burn infection model, wild-type E. coli. Particulars: human skin burn, hypromellose gel, 24 hours; 4‰ (w/w) novobiocin, 1.5‰ MD-124. Here is the method: To achieve topical application, compounds were formulated as hypromellose gel. […] After that, skin was loaded with hypromellose gel with different antibiotics and cultured at 37° C. for 24 hours. After 24 hours incubation, the skin sample was homogenized and the supernatants were serially diluted and plated on agar plates, from which bacterial counts on the skin was calculated. […] 1‰ polymyxin B hypromellose gel was used as positive control.

Setting [5] is: 10 μM compound, rifampicin as the antibiotic (Table 6).
Setting [6] is: E. coli, rifampicin, compound at 10 μM.

What is called CC50 is the concentration that lowers cell viability or growth by half. The low end stands for greater toxicity to the cells, the high end for lower toxicity to the cells. Broadly, the IC50 is the concentration at which inhibition is half-maximal. For the molecule `Cc1cc(COc2ccc(C(=N)N)cc2)cc(COc2ccc(C(=N)N)cc2)c1` [MD-100, 4,4′-(((5-methyl-1,3-phenylene)bis(methylene))bis(oxy))dibenzimidamide dihydrochloride], the cytotoxic concentration (CC50) at 24 h in [1] stood at 50 µM. Also, the Sensitization fold in the series with E. coli (ATCC 25922) (setting [5]) is 8 fold; in the series on E. coli (ATCC 25922) (E. coli, rifampicin, 10 μg/ml bacterial sensitizer), 32^a fold; in the series on E. coli (ATCC 25922) (setting [6]), 8-fold at 10 μM; in the series with E. coli (ATCC 25922) (E. coli, rifampicin, compound at 25 μM), 32-fold at 25 μM; in the series with E. coli (ATCC 25922) (wild-type E. coli towards erythromycin, 10 μg/ml MD-100), 32 fold; with B. subtilis (B. subtilis, compound at 6 μM), 8 fold at 6 μM. Also, the Sensitization fold with B. subtilis (B. subtilis, compound at 12 μM) is given as 32-fold at 12 μM;; in the series on MRSA (ATCC 33592) (compound at 6 μM) it was 32-fold at 6 μM. For the same molecule, the MIC in the series on E. coli (ATCC 25922) (ATCC25922, 24 h) amounted to 100 µM; with B. subtilis (24 h, B. subtilis, compound alone, read-out: MIC) it was 50 µM; in the series on B. subtilis (wild type B. subtilis, read-out: MIC of DB2560), 50 µg/mL. Moreover, the “growth density compared with the control (no treatment) group” value in the series with B. subtilis (B. subtilis, 5.5 μg/ml alone, no antibiotic) came to 80%. In addition, it took 100 µM to reach half-maximal cytotoxicity in the series on HEK293 cells (CC50). Besides, 100 µM corresponded to half-maximal inhibition in the series with HEK293 cells (HEK293) (IC50). Also, the “sensitization of E. coli strain NR698” value in the series on E. coli strain NR698 (erythromycin, MD-100, 24 h) is “failed to sensitize”.

`N=C(N)c1ccc(COc2cc(OCc3ccc(C(=N)N)cc3)cc(C(F)(F)F)c2)cc1` [MD-124, 4,4′-(((5-(trifluoromethyl)-1,3-phenylene)bis(oxy))bis(methylene)) dibenzimidamide dihydrochloride] registered a cytotoxic concentration (CC50) at 24 h in series [1] of 50 µM. In addition, the Sensitization fold in the series on E. coli (ATCC 25922) (setting [5]) was 512 fold; in the series with E. coli (ATCC 25922) (E. coli, rifampicin, 5 μg/ml bacterial sensitizer) it was 512 fold; in the series with E. coli (ATCC 25922) (setting [6]), 512-fold at 10 μM; in the series with E. coli (ATCC 25922) (wild type E. coli towards rifampin, 3 μg/ml MD-124), 16 fold; in the series on E. coli (ATCC 25922) (wild-type E. coli towards clarithromycin, 5 μg/ml sensitizer), 256 fold; in the series with MRSA (ATCC 33592) (compound at 5 μM) it was 32-fold at 5 μM. Also, the Sensitization fold in the series on E. coli strain NR698 (E. coli NR698 towards clarithromycin, 5 μg/ml sensitizer) came to 4 fold. Further, in the series on E. coli (ATCC 25922) (E. coli toward rifampicin, ~10 μg/ml MD-124), the “Sensitization fold (checkerboard assay)” value was “over 16,000 fold”. Besides, the “effect on bacterial growth (OD600 at different time points)” value in the series on E. coli (ATCC 25922) (E. coli, 5 μg/ml compound alone, no antibiotic, dihydrochloride) is on record as “no bacterial the growth inhibition effect; also recorded: no effect on bacterial growth”. Also, the MIC in the series on E. coli (ATCC 25922) (ATCC25922, 24 h, E. coli, compound alone, read-out: MIC) came to 100 µM; with E. coli (ATCC 25922) (ATCC25922, E. coli, read-out: MIC of MD-124 itself), 50 µg/mL; with MRSA (ATCC 33592) (Staphylococcus aureus, 24 h, compound alone, read-out: MIC), 10 µM; in the series with K. pneumoniae (43816), 25 µg/mL; in series [2] (Escherichia coli, mcr-1 over-expression E. coli, read-out: MIC of MD-124), 12.5 µg/mL. In the series with HEK293 cells, this molecule returned a CC50 of 100 µM. Further, the IC50 in the series on HEK293 cells (HEK293 cells (Table 6), read-out: IC50) came out at 100 µM. In addition, the “MIC of Rif with 3 μg/ml MD-124” value in series [2] (strain mcr-1 A) is recorded as 0.32; in series [2] (strain mcr-1 B), 1.25. The “Sensitization fold with 3 μg/ml MD-124” value is 16 fold in [2] (strain mcr-1 A, rifampicin, dihydrochloride) and 4 fold in series [2] (strain mcr-1 B, rifampicin). Further, the “MIC of Rif with 5 μg/ml MD-124” value in series [2] (strain mcr-1 B) was 0.16. Besides, the “Sensitization fold with 5 μg/ml MD-124” value in [2] (strain mcr-1 B, rifampicin) turned out to be 32 fold. The “resistant frequency towards MD-124” value with E. coli [3] (10 μg/ml MD-124, 2.7×10^10 CFUs tested) is < 3.7×10^−11. Moreover, the “lower resistance frequency towards MD-124/antibiotic combination than the antibiotic itself” value in the series on E. coli [3] (10 μg/ml MD-124, antibiotic 2 to 7-fold of MIC) is listed as 2 to 3 orders of magnitude. The “E. coli growth inhibition / bacterial load vs vehicle group” value in the series on E. coli [4] is reported as “neither 4‰ (w/w) novobiocin nor 1.5‰ MD-124 themselves achieved significant E. coli growth inhibition”.
